The subject of data set [1] is ECHCG = barnyardgrass (Echinochloa crus-galli). Nature of the data set: Postemergence herbicidal activity, barnyardgrass. Type of data set: in vivo. The settings on record: post-emergence, 336 h, post-emergent, rate 140 g ai/ha, visual score after 14 days (0 no injury, 100 complete kill), read-out: % Growth Reduction ECHCG. As for the experimental part: (§1) Evaluation of Postemergence Herbicidal Activity
(§2) Seeds or nutlets of the desired test plant species were planted in Sun Gro MetroMix® 306 planting mixture, which typically has a pH of 6.0 to 6.8 and an organic matter content of about 30 percent, in plastic pots with a surface area of 64 square centimeters. When required to ensure good germination and healthy plants, a fungicide treatment and/or other chemical or physical treatment was applied. The plants were grown for 7-21 days in a greenhouse with an approximate 15 hour photoperiod which was maintained at about 23-29° C. during the day and 22-28° C. during the night. Nutrients and water were added on a regular basis and supplemental lighting was provided with overhead metal halide 1000-Watt lamps as necessary. The plants were employed for testing when they reached the first or second true leaf stage.
(§3) A weighed amount, determined by the highest rate to be tested, of each test compound was placed in a 25 mL glass vial and was dissolved in 4 mL of a 97:3 v/v (volume/volume) mixture of acetone and dimethyl sulfoxide (DMSO) to obtain concentrated stock solutions. […] The concentrated stock solutions obtained were diluted with 20 mL of an aqueous mixture containing acetone, water, isopropyl alcohol, DMSO, Atplus 411F crop oil concentrate, and Triton® X-155 surfactant in a 48.5:39:10:1.5:1.0:0.02 v/v ratio to obtain spray solutions containing the highest application rates. Additional application rates were obtained by serial dilution of 12 mL of the high rate solution into a solution containing 2 mL of 97:3 (v/v) mixture of acetone and dimethyl sulfoxide (DMSO) and 10 mL of an aqueous mixture containing acetone, water, isopropyl alcohol, DMSO, Atplus 411F crop oil concentrate, and Triton X-155 surfactant in a 48.5:39:10:1.5:1.0:0.02 (v/v) ratio to obtain 1/2 ×, 1/4 ×, 1/8× and 1/16× rates of the high rate. Compound requirements are based upon a 12 mL application volume at a rate of 187 L/ha. Formulated compounds were applied to the plant material with an overhead Mandel track sprayer equipped with a 8002E nozzles calibrated to deliver 187 L/ha over an application area of 0.503 square meters at a spray height of 18 inches (43 cm) above the average plant canopy height. Control plants were sprayed in the same manner with the solvent blank.
(§4) The treated plants and control plants were placed in a greenhouse as described above and watered by sub-irrigation to prevent wash-off of the test compounds. After 14 days, the condition of the test plants as compared with that of the untreated plants was determined visually and scored on a scale of 0 to 100 percent where 0 corresponds to no injury and 100 corresponds to complete kill
(§5) By applying the well-accepted probit analysis as described by J. Berkson in Journal of the […], 48, 565 (1953) and by D. Finney in “Probit Analysis” Cambridge University Press (1952), the above data can be used to calculate GR50 and GR80 values, which are defined as growth reduction factors that correspond to the effective dose of herbicide required to kill or control 50 percent or 80 percent, respectively, of a target plant.

Data set [2] has as its system IPOHE = ivyleaf morningglory (Ipomoea hederacea). The data set is described as follows: Postemergence herbicidal activity, ivyleaf morningglory. To be noted: post-emergence, 336 h, post-emergent, rate 140 g ai/ha, visual score after 14 days (0 no injury, 100 complete kill), read-out: % Growth Reduction IPOHE. In kind it is in vivo. As for the experimental part: as §1, §2, §3, §4, §5

Data set [3] deals with AMARE = redroot pigweed (Amaranthus retroflexus). The data set is described as follows: Postemergence herbicidal activity, redroot pigweed. In kind it is in vivo. To be noted: post-emergence, 336 h, post-emergent, rate 140 g ai/ha, visual score after 14 days (0 no injury, 100 complete kill), read-out: % Growth Reduction AMARE. As for the experimental part:
as §1, §2, §3, §4, §5

The test system of data set [4] is EPHHL = wild poinsettia (Euphorbia heterophylla). The data set is described as follows: Postemergence herbicidal activity, wild poinsettia. In kind it is in vivo. The settings on record: post-emergence, 336 h, post-emergent, rate 140 g ai/ha, visual score after 14 days (0 no injury, 100 complete kill), read-out: % Growth Reduction EPHHL. As for the experimental part: as §1, §2, §3, §4, §5

Data set [5] has as its system ABUTH = velvetleaf (Abutilon theophrasti). The data set is described as follows: Postemergence herbicidal activity, velvetleaf. The settings on record: post-emergence, 336 h, post-emergent, rate 140 g ai/ha, visual score after 14 days (0 no injury, 100 complete kill), read-out: % Growth Reduction ABUTH. In kind it is in vivo. As for the experimental part: as §1, §2, §3, §4, §5

Data set [6] has as its system HELAN = sunflower (Helianthus annuus). The data set is described as follows: Postemergence herbicidal activity, sunflower. Type of data set: in vivo. The settings on record: post-emergence, 336 h, post-emergent, rate 140 g ai/ha, visual score after 14 days (0 no injury, 100 complete kill), read-out: % Growth Reduction HELAN. As for the experimental part: as §1, §2, §3, §4, §5

Data set [7] has as its system CHEAL = lambsquarters (Chenopodium album). Nature of the data set: Postemergence herbicidal activity, lambsquarters. Type of data set: in vivo. The settings on record: post-emergence, 336 h, post-emergent, rate 140 g ai/ha, visual score after 14 days (0 no injury, 100 complete kill), read-out: % Growth Reduction CHEAL. As for the experimental part:
as §1, §2, §3, §4, §5

By melting point is commonly meant the temperature, or range, at which the solid turns liquid.

In turn, `COC(=O)c1nc(-c2ccc(Cl)c(OC)c2F)nc(N)c1/C=C/[Si](C)(C)C` [Compound 2, (E)-methyl 6-amino-2-(4-chloro-2-fluoro-3-methoxyphenyl)-5-(2-(trimethylsilyl)vinyl)-pyrimidine-4-carboxylate] yielded a melting point of 161 to 163 °C. In addition, the pest or weed control at 140 g/ha in data set [1] was 98%. The pest or weed control at 140 g/ha in data set [2] was 90%. In addition, the pest or weed control at 140 g/ha in data set [3] was 100%. Besides, in data set [4], the pest or weed control at 140 g/ha is 100%. In addition, the pest or weed control at 140 g/ha in data set [5] was 98%. Besides, the pest or weed control at 140 g/ha in data set [6] stood at 100%.
With `COc1c(Cl)ccc(-c2nc(N)c(/C=C/[Si](C)(C)C)c(C(=O)O)n2)c1F` [Compound 6, (E)-6-amino-2-(4-chloro-2-fluoro-3-methoxyphenyl)-5-(2-(trimethylsilyl)vinyl)pyrimidine-4-carboxylicacid], the melting point lay in the range of 108 to 110 °C. For the same compound, in data set [1], the pest or weed control at 140 g/ha was 100%. Further, the pest or weed control at 140 g/ha in data set [2] was determined as 95%. Further, in data set [3], the pest or weed control at 140 g/ha came to 100%. Moreover, in data set [4], the pest or weed control at 140 g/ha amounted to 100%. The pest or weed control at 140 g/ha in data set [5] is 100%. Besides, in data set [7], the pest or weed control at 140 g/ha amounted to 100%. In addition, the pest or weed control at 140 g/ha in data set [6] was found to be 100%.
The compound `COC(=O)c1nc(-c2ccc(Cl)cc2)c(F)c(N)c1/C=C/[Si](C)(C)C` [Compound 12, (E)-Methyl 4-amino-6-(4-chlorophenyl)-5-fluoro-3-(2-(trimethylsilyl)vinyl)picolinate] had a melting point of 113 to 115 °C. In data set [1], the pest or weed control at 140 g/ha amounted to 0%. Also, in data set [2], the pest or weed control at 140 g/ha came out at 0%. Moreover, the pest or weed control at 140 g/ha in data set [3] came to 75%. Besides, the pest or weed control at 140 g/ha in data set [4] turned out to be 80%. For the same compound, the pest or weed control at 140 g/ha in data set [5] turned out to be 90%. In data set [7], the pest or weed control at 140 g/ha turned out to be 100%. For the same compound, the pest or weed control at 140 g/ha in data set [6] is 90%.
In the case of `C[Si](C)(C)/C=C/c1c(C(=O)O)nc(-c2ccc(Cl)cc2)c(F)c1N` [Compound 15, (E)-4-amino-6-(4-chlorophenyl)-5-fluoro-3-(2-(trimethylsilyl)vinyl)picolinic acid], the pest or weed control at 140 g/ha in data set [1] amounted to 80%; in data set [2] it was 70%; in data set [3], 100%; in data set [4], 90%; in data set [5], 80%; in data set [7], 90%. In addition, in data set [6], the pest or weed control at 140 g/ha worked out at 90%.

For the origin of these results see patent US8658568B2, “6-amino-2-substituted-5-vinylsilylpyrimidine-4-carboxylic acids and esters and 4-amino-6-substituted-3-vinylsilylpyridine-2-carboxylic acids and esters as herbicides” (Dow AgroSciences, LLC., priority 2011, dated 2014).
